This is an account of results in patent publication US6436920B1, “Wrinkling modifiers” (Kao Corporation, priority 1996, dated 2002).

The test relates to Wrinkles formed on hairless mice by exposure to UVB. Nature of the test: Effect of the guanidine derivatives on wrinkles formed on hairless mice by exposure to UVB. The test is classed as in vivo, Hairless mice (HR/ICR). Conditions: for Area percent by image analysis (%): proportion of shadows of wrinkles on back skin replicas (14 mm, illuminated at 30 degrees), 4% in aqueous ethanol, 100 μl 5 times a week over 6 weeks, control 10.6; for Wrinkle index: visual score 1 (wrinkles completely removed or smoothed) to 4 (observed to a great extent), 4% in aqueous ethanol (50/50 vol. %), 100 μl applied 5 times a week over 6 weeks, groups of 8 mice, control 3.73. How it is done:
Effect of the Guanidine Derivatives (1) to (16) on Wrinkles Formed on Hairless Mice by Exposure to UVB
(1) Hairless mice (HR/ICR, aged 6 weeks at the beginning of the experiment) were,exposed to UVB 3 times a week by using 6 Toshiba healthy lamps, 20SE. The amount of energy was measured by means of a UV-Radiometer, UVR-305/365D manufactured by TOKYO OPTICAL K.K. The dose upon one exposure was determined to be 1 MED or less, i.e., 65 mJ in an amount of energy of 0.28 mW/cm^2. The exposure was effected for 20 weeks. After confirming that the hairless mice had got wrinkles at their backs, they were divided into groups each consisting of 8 mice. Aqueous ethanol (water/ethanol=50/50 vol. %) solutions separately containing Compounds (1) to (16) at a concentration of 4% were applied 5 times a week to their corresponding groups of mice over 6 weeks in a dose of 100 μl. As a control, aqueous ethanol (water/ethanol=50/50 vol. %) was applied in a dose of 100 μl like the samples. After completion of the application, the degree of wrinkles was visually observed to evaluate the samples in accordance with the following standard (wrinkle index).
1: Wrinkles were completely removed or smoothed;
2: Wrinkles were scarcely observed;
3: Wrinkles were somewhat observed;
(2) In order to further analyze the particulars of wrinkles, skin replicas of the size of 14 mm in diameter were gathered from a portion of the back in each of the mice using a Hydrophilic Exaflex hydrophilic vinylsilicone impression material. Each of these replicas was held horizontally and illuminated at an angle of 30 degrees from the horizontal direction, thereby finding a proportion of shadows of the wrinkles as an area percent by means of an image analyzer.

For the compound `N=C(N)N1CC(O)CC1C(=O)O` (centres unmarked) [Compound (1)], the “Area percent by image analysis (%)” value amounted to 3.21% and the Wrinkle index is given as 2.0.
With `N=C(N)N1CCCC1C(=O)O` (centres unmarked) [Compound (2)], the “Area percent by image analysis (%)” value is listed as 2.48% and the Wrinkle index is 2.125.
With `N=C(N)N1CCC(O)C1` (centres unmarked) [Compound (3)], the “Area percent by image analysis (%)” value was determined as 4.32% and the Wrinkle index was found to be 2.50.
Consider `N=C(N)N1CCCC1CO` (centres unmarked) [Compound (4)], for which the “Area percent by image analysis (%)” value is recorded as 5.37% and the Wrinkle index was 2.50.
For `N=C(N)N1CCOCC1` [Compound (5)], the “Area percent by image analysis (%)” value was 4.76% and the Wrinkle index is given as 2.75.
With `N=C(N)N1CCC(C(=O)O)CC1` [Compound (6)], the “Area percent by image analysis (%)” value is given as 3.51% and the Wrinkle index worked out at 2.75.
On to `N=C(N)N1CCN(C(=N)N)CC1` [Compound (7)], for which the “Area percent by image analysis (%)” value is 4.28% and the Wrinkle index was 2.75.
Turning to `N=C(N)N1CCC(O)C1` (centres unmarked) [Compound (8)], the “Area percent by image analysis (%)” value was 3.26% and the Wrinkle index worked out at 2.25.
As to `N=C(N)N1CCCC1CO` (centres unmarked) [Compound (9)], the “Area percent by image analysis (%)” value is reported as 4.00% and the Wrinkle index is reported as 2.375.
For the compound `N=C(N)N1CCOCC1` [Compound (10)], the “Area percent by image analysis (%)” value is reported as 3.41% and the Wrinkle index is reported as 2.50.
For `N=C(N)N1CCN(C(=N)N)CC1` [Compound (11)], the “Area percent by image analysis (%)” value is recorded as 4.02% and the Wrinkle index is 2.75.
On the same counts, the results for `N=C(N)N1CCC(O)C1` (centres unmarked) [Compound (12)] are 3.62% and 2.50.
For `N=C(N)N1CCCC1CO` (centres unmarked) [Compound (13)], the “Area percent by image analysis (%)” value was 4.30% and the Wrinkle index stood at 2.375.
In the case of `N=C(N)N1CCCC1` [Compound (14)], the “Area percent by image analysis (%)” value turned out to be 3.62% and the Wrinkle index was 2.125.
As to `N=C(N)N1CCCCC1` [Compound (15)], the “Area percent by image analysis (%)” value is on record as 4.48% and the Wrinkle index is 2.50.
For `N=C(N)N1CCC(CC(=O)O)CC1` [Compound (16)], the “Area percent by image analysis (%)” value is on record as 4.25% and the Wrinkle index was 2.25.
